The target in assay [1] is HSV-1 thymidine kinase mutant TKI 208 (Leu-170 to Val), SEQ ID 23 (codons 165-175) (Human herpesvirus 1, UniProt P06478, L170V). The class given is biochemical, Herpes Simplex Virus Type 1. To be noted: Table I; purified enzyme, 34°C, 10 minutes. As for the experimental part: (§1) Purification of wild-type and mutant TKs was performed by affinity chromatography on CH-Sepharose 4B (Pharmacia) coupled to p-aminophenylthymidine 3'-phosphate. Briefly, crude bacterial extract was passed three times through a 7-mL bed-volume affinity column. The column was then washed sequentially using 30 mL each of buffer A [0.1 M Tris HCl, pH 7.5/5 mM dithiothreitol (DTT)/10% glycerol], buffer B (0.1M Tris-HCl, pH 7.5/0.5 M KCl/5 mM DTT/10% glycerol), and buffer A. TK was eluted using a 60-mL linear gradient of 0-600 µM dT in buffer C (0.3 M Tris HCl, pH 7.4/50 mM KCl/10% glycerol). Active fractions were pooled and dialyzed against three changes each of 2 liters of 50 mM Tris-HCl, pH 7.4/5 mM DTT/10% glycerol. Except in the final dialysis, all the above buffers contained 50 µg/mL of aprotinin and 2 µg/mL each of pepstatin and leupeptin.
(§2) Secondly, the kinetics of AZT phosphorylation by the two mutants was determined. […] (One unit of enzyme is defined as that amount that can phosphorylate 1.0 pmol of dT to TMP in 1 minute under the conditions described above.) Incubation was at 34°C ± 1°C for 10 minutes, and reactions were stopped by adding 1.0 mM unlabeled dT and cooling on ice. Half of the reaction mixtures were pipetted onto a DEAE-cellulose disc (25 mm), dipped in distilled water (1 minute), followed by four washes in absolute ethanol. The amount of radioactivity adsorbed to the disc was determined by scintillation spectroscopy. […] All other components in the reaction mixtures and the incubation conditions were as described above for phosphorylation of AZT.
(§3) All buffers used in the purification of TK contained 5mM DTT, 50 µ/mL aprotinin, 2 µg/mL each of leupeptin and pepstatin and I mM PMSF unless otherwise indicated. […] TK assay was performed on all the fractions and peak TK - fractions were pooled and dialyzed against three changes of 21 of dialysis buffer (50 mM Tris-HCl, pH 7.4, 5 mM DTT, 10% glycerol). In the final dialysis, protease inhibitors were omitted from the buffer and the dialyzed fractions were aliquoted and stored at -70°C. The column was washed thoroughly twice by using the same washing and elution protocols as described above prior to application of each extract preparation.
(§4) Kinetic parameters were determined essentially as described below. […] Incubation was at 34 ± 1°C for 10 minutes. […] Half of the reaction mix was pipetted onto a DEAE-cellulose disc (25 mm) and the disc was dipped in distilled water (1 minute) followed by four washes each in 10 mL of absolute ethanol. The adsorbed products on the disc were counted in a scintillation counter.

In assay [2] the target is HSV-1 thymidine kinase, wild-type (pMCC), SEQ ID 13 (codons 165-175) (Human herpesvirus 1, UniProt P06478). The class given is biochemical, Herpes Simplex Virus Type 1. The settings on record: Table I; purified enzyme, 34°C, 10 minutes. As for the experimental part:
as §1, §2, §3, §4

The test system of assay [3] is BHK tk- cells transfected with pREP8D7:dualGFP expressing TK mutant SR39. Description: ACV kill curves of transfectant pools. The class given is cell-based, baby hamster. To be noted: Mesocricetus auratus, Table VII. From the text:
(§5) The seven mutants were subcloned into the mammalian expression vector, pREP8D7:dualGFP. This vector contains a constitutive metallothionin promoter, which drives the expression of green flourescent protein (GFP), and an RSV LTR promoter, which stimulated expression of the TK mutants. The vector also contains a histidinol resistance gene for selection of transformants. Purified vector DNA of these constructs was used to transfect BHK tk- cells by electroporation. The transfectants were selected by resistance to histidinol and sorted using FACS analysis for GFP expression. Pools of transfectants were then assayed for sensitivity to GCV or ACV over a range of prodrug doses. […] Table VIII illustrates the IC50 values from Rat C6 kill curves with the SR11, SR26, and SR39 mutants.

Assay [4] has as its system BHK tk- cells transfected with pREP8D7:dualGFP expressing TK mutant SR11. Description: ACV kill curves of transfectant pools. The class given is cell-based, baby hamster. To be noted: Mesocricetus auratus, Table VII.
Description: as §5

For assay [5], the system named is BHK tk- cells transfected with pREP8D7:dualGFP expressing wild-type TK. The assay can be described thus: ACV kill curves of transfectant pools. The class given is cell-based, baby hamster. To be noted: Mesocricetus auratus, Table VII.
Description: as §5

Assay [6] has as its system BHK tk- cells transfected with pREP8D7:dualGFP expressing TK mutant SR26. Description: ACV kill curves of transfectant pools. The class given is cell-based, baby hamster. The settings on record: Mesocricetus auratus, Table VII.
Description: as §5

The results in this text go back to patent publication EP1914304A1 (priority 1998, dated 1999).

“And” between values parts separate entries of the source, which are not always exact repeats. Equal entries are not always repeated.

Chain of HSV-1 thymidine kinase, wild-type (pMCC), SEQ ID 13 (codons 165-175) (P06478 whole entry, looked up): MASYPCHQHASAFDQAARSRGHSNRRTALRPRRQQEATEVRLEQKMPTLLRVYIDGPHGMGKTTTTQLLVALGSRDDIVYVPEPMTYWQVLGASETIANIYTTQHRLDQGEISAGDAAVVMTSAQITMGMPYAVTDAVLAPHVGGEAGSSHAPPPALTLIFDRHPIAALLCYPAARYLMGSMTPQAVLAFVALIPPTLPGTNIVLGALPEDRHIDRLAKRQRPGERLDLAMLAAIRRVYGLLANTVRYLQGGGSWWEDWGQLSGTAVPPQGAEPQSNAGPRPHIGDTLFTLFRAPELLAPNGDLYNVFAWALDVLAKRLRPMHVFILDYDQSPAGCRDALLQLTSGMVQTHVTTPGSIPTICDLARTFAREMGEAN
Chain of HSV-1 thymidine kinase mutant TKI 208 (Leu-170 to Val), SEQ ID 23 (codons 165-175) (P06478 whole entry L170V, looked up): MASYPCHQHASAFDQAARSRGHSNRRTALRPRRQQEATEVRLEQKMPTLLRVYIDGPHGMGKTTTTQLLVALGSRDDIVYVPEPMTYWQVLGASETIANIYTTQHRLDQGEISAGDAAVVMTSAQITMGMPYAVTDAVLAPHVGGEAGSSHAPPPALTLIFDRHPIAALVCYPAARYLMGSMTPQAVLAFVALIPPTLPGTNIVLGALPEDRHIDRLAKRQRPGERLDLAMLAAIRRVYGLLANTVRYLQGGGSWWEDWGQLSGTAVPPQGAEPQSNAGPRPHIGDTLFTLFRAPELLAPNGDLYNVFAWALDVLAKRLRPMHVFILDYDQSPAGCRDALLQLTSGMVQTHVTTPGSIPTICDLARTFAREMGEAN

Turning to `Cc1cn([C@H]2C[C@H](N=[N+]=[N-])[C@@H](CO)O2)c(=O)[nH]c1=O` [AZT, 3' azido-3' thymidine], in assay [1], the Km was found to be 4.4 µM and the kcat was found to be 0.03 s⁻¹. Further, in assay [2], the Michaelis-Menten constant (Km) is 8.5 µM and 8.46 µM; the turnover number (kcat) came to 0.036 s⁻¹.
Take `Nc1nc2c(ncn2COCCO)c(=O)[nH]1` [acyclovir]: the half-maximal inhibitory concentration (IC50) in assay [3] was 30 nM; in assay [4], 25 nM; in assay [5], 200 nM; in assay [6], 35 nM.
